Experiments:
colonic bacteria = conditions: in vivo, po; cited from earlier work
[1] = Cumulative urinary excretion of oral sugars by HPLC-MS in IBS-C patients and healthy volunteers (Example 3); assay type: in vivo, human
Description: The following was performed to determine duodenal and colonic barrier function and endotoxin activity in females with IBS-C in comparison to healthy. 16 IBS-C (Rome III) patients and 13 matched healthy volunteers (females) were given oral lactulose, ^12C mannitol and ^13C mannitol measured cumulatively over 0-2 and 8-24 hours by HPLC-MS. 10 biopsies were obtained from duodenum and sigmoid colon. Mucosal transepithelial resistance (TER), FITC dextran (4 KDa), and E. coli K12 BioParticle flux were measured in Ussing chambers. Endotoxin activity (blood) was measured towards gram-negative bacterial lipopolysaccharide. Unpaired 2-sided t-tests were used for comparisons.

[2] = assay type: in vivo, human
Description: 24 healthy volunteers (12 females) aged 18-65 years are recruited. Those using NSAIDs, oral corticosteroids, artificial sweeteners (Splenda, aspartame), lactulose, mannitol, or medications affecting gastrointestinal transit are excluded. All 24 participants undergo a baseline urinary excretion assay using the three saccharides (100 mg ^13C mannitol, 100 mg ^12C mannitol, and 1000 mg lactulose) dissolved in 250 mL of water. 500 mL of water is administered 30 minutes after the sugars are ingested to aid in the production of urine. Participants are allowed regular amounts of water throughout the study, and no standardized meals are provided. Cumulative urine samples for 0-2 hours are collected while they are in the CRU and stored. Two containers are provided for the cumulative 2-8 hour collection and cumulative 8-24 hour collection. Participants are instructed to return these collections the following day. The collections are subjected to HPLC-MS for quantitative estimation of the sugars.
These participants receive 75 mg of Indomethacin orally 8 hour and 30 minutes prior to a second urinary excretion assay using the same three sugars. Finally, these participants undergo a third assay after 4 weeks from the end of the second assay in the absence of any indomethacin or other NSAIDs or perturbations. All three assays are done using the same protocol and urinary collections. Additionally, these participants undergo an upper endoscopy with duodenal biopsies at baseline and after Indomethacin challenge. The ^13C mannitol-assay based urinary excretion findings are correlated with histology findings on light microscopy and with ex vivo mucosal barrier function/permeability. For this, tw freshly obtained biopsies are mounted in 4 mL Ussing chambers (Physiological Instruments, California, USA) exposing a 0.03 cm^2 area. Transepithelial resistance is measured using Ag/AgCl electrodes with agar-salt bridges and current delivered with platinum electrodes. Macromolecular flux across biopsies are studied using FITC Dextran (4 kDa, Molecular Probes, New York). At 30-minute intervals for a total of 3 hours, basal compartment fluorescence are analyzed.
At each visit, baseline excretion of ^12C mannitol was higher than the ^13C mannitol (p<0.0001) with 5 of 73 subjects excreting >10 mg of ^12C mannitol prior to test dose administration. At visit 1, one subject excreted 62 mg of ^12C mannitol, which dropped to 28 mg after test dose administration.
This recovered completely at visit 3. Both low and high dose Indomethacin had similar effects. […] It is possible that intestinal microflora can influence the L:M based excretion assay for intestinal permeability. To test this, seven patients underwent a fourth testing following bowel prep with MoviPrep. […] This could reflect increased transit after the bowel prep resulting in less contact time between the sugar and the absorptive surface area.

[3] = human, in vivo
Description: The following was performed to determine if administration of ^13C-mannitol can be used to measure intestinal permeability. Ten healthy volunteers (five females) received oral sugars after 8 hours of fasting. Those volunteers using tobacco, NSAIDs, oral corticosteroids, sweeteners, lactulose, mannitol, or medications affecting gastrointestinal transit were excluded. Three saccharides (100 mg of ^13C-mannitol, 100 mg of ^12C-mannitol (regular mannitol), and 1000 mg of ^12C-lactulose (regular lactulose)) dissolved in 250 mL of water were administered. 0-2 hour cumulative mannitol and 8-24 hour cumulative lactulose or mannitol excretion were measured to assess small intestinal and colonic permeability, respectively. After baseline urine collection, collections were pooled for 0-2 hours, 2-8 hours, and 8-24 hours following administration of test sugars. High performance liquid chromatography-tandem mass spectrometry was performed to determine urinary sugar concentrations. Cumulative excretions and lactulose:mannitol (L:M) ratios (ratio of fractional excretion) were calculated. Mann-Whitney test was used for statistical analysis.

[4] = human, in vivo; remark: listed apart in the source
Description: The following was performed to evaluate safety and effectiveness of oral nutritional therapy with serum-derived bovine immunoglobulin (SBI) on symptoms, epithelial barrier function, and mucosal expression of pivotal genes in small intestinal mucosa (SI) in patients with IBS-D. This open-label pilot study evaluated effects of SBI, 5.0 g twice daily for 8 weeks, in 15 patients with IBS-D (Rome III) on symptoms, tryptophan metabolism (kynurenine to tryptophan ratio), intestinal permeability [measured by two sugars (^13C-mannitol and lactulose) urine excretion: 0-2 hours (SI) and 2-8 hours (SI and colon)] and distal duodenal mucosal mRNA expression of pivotal genes including tight junction, secretory mechanisms, tissue repair proteins and chemokines. Bowel function and abdominal pain (worst and average) were evaluated using a daily diary including the Bristol Stool Form Scale, and bile acid homeostasis by fasting serum FGF-19 and 7αC4. Statistical analysis was based on ITT principles using paired tests (comparing baseline with results of therapy over 8 weeks or in final 2 weeks) and included imputation for missing data for one patient.

[5] = Indomethacin challenge, p=0.004

OC[C@@H](O)[C@@H](O)[C@H](O)[C@H](O)CO [mannitol]
Fraction of orally ingested mannitol metabolized by colonic bacteria (colonic bacteria): about 75%

OC[C@H]1O[C@@H](O[C@@H]2[C@@H](CO)OC(O)(CO)[C@H]2O)[C@H](O)[C@@H](O)[C@H]1O (mixture of isomers) [lactulose]
0-2 hr cumulative urinary excretion (mg), mean (SEM) ([1]; Healthy Volunteers (n=11)): 0.99(0.12) mg | 8-24 hr cumulative urinary excretion (mg), mean (SEM) ([1]; Healthy Volunteers (n=11)): 0.72(0.31) mg | 0-2 hr cumulative urinary excretion (mg), mean (SEM) ([1]; IBS-C (n=16)): 1.12(0.19) mg | 8-24 hr cumulative urinary excretion (mg), mean (SEM) ([1]; IBS-C (n=16)): 1.06(0.55) mg

COc1ccc2c(c1)c(CC(=O)O)c(C)n2C(=O)c1ccc(Cl)cc1 [Indomethacin]
0-2h lactulose excretion compared to baseline (visit 1) ([2]; Indomethacin challenge, p<0.0001): increased | 2-8h lactulose excretion compared to baseline (visit 1) [2, 5]: increased | 8-24h lactulose excretion compared to baseline (visit 1) [2, 5]: increased | 12C or 13C mannitol excretion with Indomethacin treatment ([2]; either excretion time-point): did not increase

^13C-mannitol
L:M ratio: Mean (SEM), 0-2 hours [3]: 0.007 | L:M ratio: Mean (SEM), 2-8 hours [3]: 0.01 | L:M ratio: Mean (SEM), 8-24 hours [3]: 0.01 | Mean lower baseline contamination vs 12C mannitol [3]: 20 fold | Participants with disproportionately high baseline excretion [3]: none | Baseline excretion ([2]; in vivo): nearly undetectable | Change of excretion in the 0-2 hr interval compared with baseline ([2]; in vivo): increased in all cases | Excretion at baseline in IBS-D patients vs 8 healthy controls [4]: did not differ

OC[C@@H](O)[C@@H](O)[C@H](O)[C@H](O)CO [^12C-mannitol]
L:M ratio: Mean (SEM), 0-2 hours [3]: 0.006 | L:M ratio: Mean (SEM), 2-8 hours [3]: 0.009 | L:M ratio: Mean (SEM), 8-24 hours [3]: 0.002 | Participants with disproportionately high baseline excretion [3]: Three of the ten | Baseline excretion ([2]; in vivo): higher | Change of excretion in the 0-2 hr interval compared with baseline ([2]; in vivo): four subjects exhibited no significant increase | Cumulative (0-24h) mean recovery, comparison 12C vs 13C mannitol ([2]; in vivo): significantly higher | Excretion of one subject after test dose administration ([2]; in vivo): 28 mg | Excretion of one subject at baseline ([2]; in vivo): 62 mg | Subjects excreting >10 mg prior to test dose administration ([2]; in vivo): 5 of 73
